Patent US20240398775A1, “PHARMACEUTICAL COMPOSITION FOR USE IN TREATING COGNITIVE DECLINE OR FOR USE IN TREATING OVERWEIGHT OR OBESITY” (University of the Ryukyus, priority 2021, published 2024)

What was measured:
[1] = system: GluA2 mRNA / (GluA1+GluA3+GluA4 mRNA); test: qRT-PCR of AMPAR/NMDAR subunits in hippocampal regions, Ca2+ permeability index; assay type: in vivo, mouse
Description: Hippocampal slices of 17 to 18 week old male C57BL/6J background mice (CD, HFD, and HFD with PER treatment) or 12 to 13 week old ob/ob mice (ob/ob, and ob/ob with PER treatment) were prepared as previously reported (56, 57). After preparing and collecting hippocampal slices, CA1, CA2, CA3, DG, and EC regions were separated from hippocampal slices using a dissection knife from […] background mice and ob/ob mice, respectively. The CA1, CA2, CA3, DG, and EC regions of mice were separated and immediately lysed in disposable homogenization tube BioMasher2 (trademark) (Nippi, Tokyo, Japan) using 0.5 mL of TRIzol RNA isolation reagent (Thermo Fisher Scientific, Wilmington, DE). Total RNA was individually extracted from each region according to the remaining protocol of the TRIzol RNA isolation reagent provided by the manufacturer (Thermo Fisher Scientific, Wilmington, DE). 1 μg of total RNA was reverse transcribed using PrimeScript RT Reagent Kit (Takara, Shiga, Japan). An aliquot of the obtained CDNA was diluted 1:10 and added to a master mix of TB Green Premix ExTaq (Takara, Shiga, Japan), and real-time PCR was performed using a 7500 Fast Real-Time PCR system (Applied Biosystems, Foster City, CA, USA) according to the manufacturer's instructions. The conditions for real-time PCR were as follows. 40 cycles of 95° C. for 30 seconds, then 95° C. for 5 seconds and 60° C. for 34 seconds. The fluorescence intensity was measured for each annealing step and the threshold cycle time was determined using 7500 software. In addition, relative expression levels of β-actin were normalized to respective controls (vehicle group). The relative expression level of the target gene in each sample was determined using a standard curve and further normalized to the expression level of β-actin of the same sample. The sequences of primers and probes for these genes are shown in Supplemental Table 2. The “ratio of GluA2 mRNA amount/(GluA1+GluA3+GluA4 mRNA amount” was used as a Ca^2+ permeability index.
GluA2 is edited at the Q/R site within the reentry M2 membrane loop region by adenosine deaminase (ADAR2), which acts on RNA type 2 involved in editing double-stranded RNA from adenosine (A) to inosine (I) (review, refer to 15, 16 and 17). Attempts were made to determine real-time quantitative reverse transcription polymerase chain reaction (qRT-PCR), subunit composition of AMPAR and NMDAR. Total RNA in hippocampal subregions (CA1, CA3, DG, EC) was separated, and quantitative analysis of mRNA of GluA1, GluA2, GluA3, and GluA4 for AMPAR, and GluN1, GluN2A, GluN2B, and GluN2C for NMDAR was performed by qRT-PCR. […] Based on the mRNA amount of each subunit, the ratio of GluA2 to other GluA subunits (FIG. 2B) was determined. The ratio was defined as a Ca^2+ permeability index.

HFD-fed mice [2] = test: Five-trial social memory assay; assay type: in vivo, mouse; conditions: PER treatment
Description: Five-trial social tests were performed as previously described (19). In summary, subject mice with CD, HFD, and HFD with PER treatment were housed individually starting 7 days before the study to establish territory dominance. On the day of the test, a female mouse was presented in the cages of subject male mice, which is a subject (FIG. 2G), and 5 min trials were performed 4 times in succession at 10 min intervals. In the fifth trial, a novel female mouse was presented (FIG. 2G) and the duration of the social investigation was recorded.

HFD-fed mice [3] = test: Morris water maze pattern completion test; assay type: in vivo, mouse; conditions: PER administration
Description: The Morris water maze task was performed as previously described using mice with CD, HFD, and HFD with PER treatment (49). All experiments were performed at approximately the same time of day. Mice were transported from the colony to the holding area and kept undisturbed for 30 minutes prior to the experiment. The tests were performed in a rectangular dimly lit room with a circular pool (Muromachi Kikai Co., Ltd., Tokyo, Japan) of 120 cm diameter filled with opaque water with skim milk (Morinaga, Japan) kept at room temperature. Four large objects illuminated by floor lamps were hung on the black curtains surrounding the pool as cues outside the maze. A hidden circular platform with a diameter of 10 cm was placed 1 cm below the surface of the water and the mice were trained to find the platform 4 times per day at intervals of approximately 60 minutes for 12 days. During training, the mice were released from 4 start points (N, S, E, and W) assigned in a pseudo-random manner and allowed to swim for 300 seconds.
On the thirteenth day, a probe trial was performed under the condition of full-cue (P1). […] Training and probe trial data were collected and analyzed using CompACT VAS/DV video tracking system software. The escape latency to the hidden platform (goal reaching time) was measured.

Aβ = Aβ staining of neurosphere culture; assay type: cell-based, mouse; conditions: neurospheres from NL-G-F(−/−) mice, fourth day of culture, perampanel group
NL-G-F(−/−) mice = test: Hippocampus function-dependent fear conditioning test in NL-G-F(−/−) mice; assay type: in vivo, mouse; conditions: perampanel alone 5 mg/kg or 10 mg/kg
Description: Contextual fear conditioning was applied with slight modifications to published protocols (50). Mice were transferred to the animal experimental room and allowed to acclimatize for at least 30 minutes prior to contextual fear conditioning training. Next, the mice were placed in a foot shock system model MK-450 MSQ (Muromachi Kikai Co., Ltd., Japan), searching was performed for 2 minutes, and then 3 electric foot shocks (0.8 mA, 2 sec, 2 min interval) were performed. After mice were left in the apparatus for an additional 1 minute, the animals were removed.
NL-G-F(−/−) mice, a dementia model, were administered with memantine (mema), exercise, memantine and exercise, memantine and perampanel, and perampanel alone (5 mg/kg or 10 mg/kg), and subjected to behavioral experiments. As the behavior test, a novel object recognition test and a hippocampus function-dependent fear conditioning test were performed. Memantine is an antagonist of the NMDA receptor, but has distinct properties from other NMDA receptor antagonists (refer to Hokama Y., et al., Neuro Oncology, 2022, noac162). That is, memantine is a drug that works only when glutamic acid is excessively present in the brain.

[4] = HFD-fed mice with PER, ratio GluA2 mRNA/(GluA1+GluA3+GluA4 mRNA), N = 5

N#Cc1ccccc1-c1cc(-c2ccccn2)cn(-c2ccccc2)c1=O [PER, 3-(2-cyanophenyl)-5-(2-pyridyl)-1-phenyl-1,2-dihydropyridine-2-one]
Ca2+-permeability index CA1 [1, 4]: 0.29 ± 0.11 | Ca2+-permeability index CA3 [1, 4]: 0.26 ± 0.10 | Ca2+-permeability index DG [1, 4]: 0.22 ± 0.06 | Ca2+-permeability index EC [1, 4]: 0.30 ± 0.05 | Ca2+ permeability index via CA1, CA3, DG and EC ([1]; HFD-fed mice, PER administration, N=5): returned to CD-fed mouse levels | GluA2 mRNA expression in CA1 ([1]; mice fed HFD with PER, qRT-PCR, p<0.05): significant increase | social memory (HFD-fed mice [2]): restored social memory disturbance | pattern completion ability (HFD-fed mice [3]): restored | Aβ staining of culture (Aβ): decrease in Aβ | cognitive function in hippocampus function-dependent fear conditioning test (NL-G-F(−/−) mice): remarkable improvement in cognitive function
